molecular target: RIPK1 (recombinant GST-RIPK1 kinase domain, residues 1-327) (Homo sapiens (Human), UniProt Q13546); assay: RIPK1-ADP-Glo Enzymatic Assay; assay type: biochemical; conditions: ADP-Glo; 25 nM GST-RIPK1, 300 μM ATP; assay lower limit ~25 nM; read-out: RIPK1 V0 Ec50
Outline: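 GST-tagged kinase domain (residues 1-327, Sf21-expressed), 25 nM, pre-incubated 30 min with compound at ambient temperature, then reacted 150 min with 300 μM ATP and 3 μM dephosphorylated MBP in HEPES pH 7.3 buffer. ADP measured by ADP-Glo luminescence; EC50 from ten-point titration (top 100000 nM), four-parameter fit.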

RIPK1 (recombinant GST-RIPK1 kinase domain, residues 1-327), sequence (Q13546 1-327): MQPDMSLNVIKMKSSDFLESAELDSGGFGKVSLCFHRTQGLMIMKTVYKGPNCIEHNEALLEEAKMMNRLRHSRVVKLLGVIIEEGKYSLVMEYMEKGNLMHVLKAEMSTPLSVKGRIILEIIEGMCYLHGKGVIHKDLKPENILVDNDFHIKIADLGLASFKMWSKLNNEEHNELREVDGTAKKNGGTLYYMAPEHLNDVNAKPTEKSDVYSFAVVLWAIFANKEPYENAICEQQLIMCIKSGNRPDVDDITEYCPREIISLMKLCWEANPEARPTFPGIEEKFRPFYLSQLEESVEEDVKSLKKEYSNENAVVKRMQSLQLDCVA

Row | SMILES | EC50
1 | O=C1N2[C@@H](CC[C@H]2c2cc(F)cc(F)c2)OC12CN(c1ccnc3c(F)cnn13)C2 [Example 4.117, (5′S,7a′R)-5′-(3,5-difluorophenyl)-1-(3-fluoropyrazolo[1,5-a]pyrimidin-7-yl)tetrahydro-3′H-spiro[azetidine-3,2′-pyrrolo[2,1-b]oxazol]-3′-one] | < 25 nM
2 | O=C(c1ccccc1F)N1CCC2(CC1)O[C@@H]1CC[C@@H](c3cccc(F)c3)N1C2=O [Example 1.7, (5′S,7a′R)-1-(2-fluorobenzene-1-carbonyl)-5′-(3-fluorophenyl)tetrahydro-3′H-spiro[piperidine-4,2′-pyrrolo[2,1-b] [1,3]oxazol]-3′-one] | < 25 nM
3 | NC(=O)c1ccc(N2CCC3(CC2)O[C@@H]2CC[C@@H](c4ccccc4)N2C3=O)nc1Cl [Example 4.201, 2-chloro-6-[(5′S,7a′R)-3′-oxo-5′-phenyltetrahydro-1H,3′H-spiro[piperidine-4,2′-pyrrolo[2,1-b] [1,3]oxazol]-1-yl]pyridine-3-carboxamide] | < 25 nM
4 | N#Cc1ccc(N2CCC3(CC2)O[C@@H]2CC[C@@H](c4ccccc4)N2C3=O)n2ncc(F)c12 [Example 4.177, 3-fluoro-7-[(5′S,7a′R)-3′-oxo-5′-phenyltetrahydro-1H,3′H-spiro[piperidine-4,2′-pyrrolo[2,1-b] [1,3]oxazol]-1-yl]pyrazolo[1,5-a] pyridine-4-carbonitrile] | < 25 nM
5 | N#Cc1ccc(N2CCC3(CC2)O[C@@H]2CC[C@@H](c4cccc(F)c4)N2C3=O)n2nccc12 [Example 4.157, 7-[(5′S,7a′R)-5′-(3-fluorophenyl)-3′-oxotetrahydro-1H,3′H-spiro[piperidine-4,2′-pyrrolo[2,1-b] [1,3]oxazol]-1-yl]pyrazolo[1,5-a] pyridine-4-carbonitrile] | < 25 nM

Now from value to compound:

Row | EC50 | SMILES
6 | < 25 nM | O=C(c1onc2ccccc12)N1CCC2(CC1)O[C@@H]1CC[C@@H](c3cc(F)cc(F)c3)N1C2=O [Example 6.50, (5′S,7a′R)-1-(2,1-benzoxazole-3-carbonyl)-5′-(3,5-difluorophenyl)tetra-hydro-3′H-spiro [piperidine-4,2′-pyrrolo[2,1-b][1,3]oxazol]-3′-one]
7 | 426 nM | Cc1onc(C(=O)N2CCC3(CC2)O[C@@H]2CC[C@@H](c4cc(F)cc(F)c4)N2C3=O)c1C [Example 6.57, (5′S,7a′R)-5′-(3,5-difluorophenyl)-1-(4,5-dimethyl-1,2-oxazole-3-carbonyl) tetrahydro-3′H-spiro [piperidine-4,2′-pyrrolo[2,1-b][1,3]-oxazol]-3′-one]
8 | 36.8 nM | O=C1N2[C@@H](CC[C@H]2c2cc(F)cc(F)c2)OC12CCN(c1nccn3cccc13)CC2 [Example 13.10, (5′S,7a′R)-5′-(3,5-difluorophenyl)-1-(pyrrolo[1,2-a]pyrazin-1-yl)tetrahydro-3′H-spiro[piperidine-4,2′-pyrrolo[2,1-b]oxazol]-3′-one]
9 | 421 nM | O=C1N2[C@@H](CC[C@H]2c2ccccc2F)OC12CN(S(=O)(=O)c1cccc(F)c1)C2 [Example 8.6, (5′S,7a′R)-5′-(2-fluorophenyl)-1-((3-fluorophenyl)sulfonyl) tetrahydro-3′H-spiro[azetidine-3,2′-pyrrolo[2,1-b]oxazol]-3′-one]
10 | 57.9 nM | O=C(c1ccncn1)N1CCC2(CC1)O[C@@H]1CC[C@@H](c3cc(F)cc(F)c3)N1C2=O [Example 6.63, (5′S,7a′R)-5′-(3,5-difluorophenyl)-1-(pyrimidine-4-carbon-yl)tetrahydro-3′H-spiro[piperidine-4,2′-pyrrolo[2,1-b][1,3]-oxazol]-3′-one]
11 | 60 nM | Cc1cccc(C(=O)N2CCC3(CC2)O[C@@H]2CC[C@@H](c4cc(F)cc(F)c4)N2C3=O)n1 [Example 6.13, (5′S,7a′R)-5′-(3,5-difluorophenyl)-1-(6-methylpyridine-2-carbonyl)tetrahydro-3′H-spiro[piperidine-4,2′-pyrrolo[2,1-b] [1,3]oxazol]-3′-one]
